The results in this text go back to patent US20050250853A1, “Beta-tubulin inhibitors” (priority 1999, published 2005).

SMILES strings stand for the structures. “Also recorded” adds a separate entry of the source. Where two headings read alike, the source gives them in different places. Marks after values point to notes of the source that are not given here.

Series [1] relates to MDA-MB-231 cells. The series can be described thus: cells. The series is classed as cell-based, human. As to conditions: for IC50: MTT assay, mean ± SD, read-out: IC50 (μM) MDA-MB-231. As to the method:
(§1) Human breast carcinoma cell line, MDA-MB-231, was obtained from the American Type Culture Collection (ATCC HTB-26; Bethesda, Md.). MDA-MB-231 cells were grown in RPMI 1640 medium supplemented with 10% bovine calf serum (Hyclone, Road Logan, Utah). Wild-type Chinese Hamster Ovary cells (CHO-10001) (7), colchicine- and vinblastine-resistant (CHO-VV 3-2) (8) and taxol-resistant (CHO-TAX 5-6) cells (9) were generously provided by Dr. Fernando Cabral (University of Texas Medical School, Houston, Tex.). These cells were cultured in RPMI 1640 containing 10% fetal bovine serum. SK—N—SH human neuroblastoma cells, (ATCC HTB-11; Bethesda, Md.) were cultured in MEM medium supplemented with 2 mM L-glutamine, 1.5 g/liter sodium bicarbonate, 0.1 mM non-essential amino acids, 1 mM sodium pyruvate and 10% fetal bovine serum. Cells were cultured in a humidified atmosphere at 37° C. in 5% CO2.
(§2) Cytotoxicity was assessed using the MTT assay (3-(4,5-dimethylthiazol-2-yl)-2,5-diphenyltetrazolium bromide) as described by Carmichael et al. (12).

The test system of series [2] is β-tubulin. The experiment in a line: Separation of soluble and polymerized tubulins, Western blot of β-tubulin. The series is classed as cell-based, human. As to conditions: MDA-MB-231 cells, 30 μM, 24 h and 48 h. The protocol: FIG. 2. Effects of CEU derivatives on microtubule depolymerization. Exponentially growing MDA-MB-231 cells were incubated in the absence or the presence of 30 μM of CEU derivatives including (A) 4-tBCEU, 4-iPCEU or 4-sBCEU for 24 and 48 h respectively; (B) 2-ECEU, 3-ECEU or 4-ECEU for 24 and 48 h; and (C) 4-tBEU, 4-iPEU, 4-sBEU, 4-tBCPU, CEU or 4-methoxyCEU for 48 h. Free tubulin and microtubule fractions were isolated and analyzed by Western blot. Data are representative of three different experiments.
Separation of soluble and polymerized tubulins from MDA-MB231 cells was carried out as described by Minotti et al. (14) with minor modifications. Briefly, after drug exposure, about 5×10^6 cells in 100-mm petri dishes were washed with PBS at 37° C. and harvested in 3 ml of PBS containing 0.4 μg/ml of taxol using a rubber policeman.
Cells were centrifuged and lysed using 250 μl of microtubule-stabilizing buffer (20 mM Tris-HCl, pH 6.8, 140 mM NaCl, 1 mM MgCl2, 2 mM EDTA, 0.5% Nonidet P-40 and 0.4 μg/ml taxol), and then transferred to 1.5 ml microcentrifuge tubes. Samples were centrifuged at 12,000×g for 10 min at 4° C. and the supernatants containing soluble tubulin were placed in separate microcentrifuge tubes containing 250 μl of 2× Laemmli sample buffer (15). Pellets containing the polymerized tubulin were resuspended in 250 μl of water, followed by two freeze/thawing cycles, and the addition of 250 μl of 2× Laemmli sample buffer. Samples were analyzed by SDS-PAGE and immunoassay was performed as described below.
Samples (1×10^5 cells) were analyzed by 10% SDS-PAGE using the Laemmli system (15). Membranes were then incubated with PBSMT (PBS, pH 7.4, 5% fat-free dry milk and 0.1% Tween-20) for 1 h at room temperature, and then with 1:500 monoclonal anti-β-tubulin (clone TUB 2.1, Sigma) or 1:400 anti (clone no. SDL.3D10, Sigma) for 1 h. […] Membranes were washed with PBSMT and incubated with 1:2500 peroxidase-conjugated anti-mouse immunoglobulin (Amersham Canada, Oakville, Canada) in PBSMT for 30 min. Detection of the immunoblot was carried out with the ECL Western blotting detection reagent kit (Amersham Canada, Oakville, Canada).

The test system of series [3] is CHO 10001 cells (wild-type). The series can be described thus: MTT cytotoxicity on wild-type CHO cells. Format: cell-based, Chinese hamster. As to conditions: Cricetulus griseus, CHO10001, 120 h, read-out: IC50 CHO 10001. As to the method: as §1, with “Wild-type Chinese Hamster Ovary cells (CHO-10001) (7), colchicine- and vinblastine-resistant (CHO-VV 3-2) (8) and taxol-resistant (CHO-TAX 5-6) cells (9) were generously provided by Dr. Fernando Cabral (University of Texas Medical School, Houston, Tex.).” left out
as §2
(§3) The cytotoxicity of 4-tBCEU, 4-iPCEU and 4-sBCEU in two CHO cell lines having differential sensitivity to antmicrotubule agents was evaluated. These cell lines are derived from parental CHO-10001 cells and express mutated tubulins.

A further series concerns CHO VV 3-2 cells. The series can be described thus: MTT cytotoxicity on vinblastine- and colchicine-resistant CHO cells expressing mutated tubulin. The series is classed as cell-based, Chinese hamster. The following applies: Cricetulus griseus, CHO-VV 3-2, 120 h, read-out: IC50 CHO VV 3-2. The protocol:
as §1, with “Wild-type Chinese Hamster Ovary cells (CHO-10001) (7), colchicine- and vinblastine-resistant (CHO-VV 3-2) (8) and taxol-resistant (CHO-TAX 5-6) cells (9) were generously provided by Dr. Fernando Cabral (University of Texas Medical School, Houston, Tex.).” left out
as §2, §3

A short description of series [4]: Kinetics of alkylation of 4-(4-nitrobenzyl)pyridine (colorimetric assay). As to conditions: 80° C., pH 4.3, absorbance at 570 nm, linear regression, mean ± SD. Format: physicochemical. As to the method: The rate constant of alkylation (K′) of CEU derivatives and chlorambucil was evaluated by a […] assay as described by Bardos et al (13). Briefly, 1 ml of a 10% (v/v) solution of 4-(4-nitrobenzyl)pyridine in ethanol and 1 ml of 50 mM sodium acetate (pH 4.3) were added to an ethanol solution (95%) containing 400 nmol per ml of either chlorambucil or CEU and heated to 80° C. in a shaking water bath for 60, 90, 120 or 150 min. The reaction was stopped by cooling the mixtures on ice for 5 min. Then, 1.5 ml of 0.1 M KOH: ethanol (1:2, v/v) were added to the reaction mixture. Samples were vortexed for 12 sec and set aside for 2.5 min prior to reading the absorbance at 570 nm. The values were compared with those obtained using a blank sample containing all reagents except the alkylating agent.

Series [5] relates to MDA-MB-231 cells. The experiment in a line: Cell cycle analysis by propidium iodide flow cytometry. The series is classed as cell-based, human. As to conditions: CEU derivatives at 30 μM, 24 h; flow cytometry. As to the method:
FIG. 1. Effect of CEU derivatives on cell cycle. Exponentially growing MDA-MB-231 cells were incubated in the absence or presence of 30 μM of either 4-tBCEU, 4-iPCEU or 4-sBCEU for 24 and 48 h, respectively, at 37° C. The cell cycle was evaluated using propidium iodide staining and flow cytometric analysis. Data are representative of three independent experiments.
Following incubation of MDA-MB-231 cells with 4-tBCEU, 4-iPCEU or 4-sBCEU, the cells were harvested, resuspended in 1 ml PBS and fixed by the addition of 2.4 ml of ice cold anhydrous ethanol. Then, 5×10^5 cells from each sample were centrifuged for 3 min at 1000×g. Cell pellets were resuspended in PBS containing 50 μg/ml of PI and 40 U/ml of ribonuclease A (Boehringer Mannheim, Laval, Calif.). Mixtures were incubated at room temperature for 30 min and cell cycle distribution was analyzed using an Epics Elite ESP flow cytometer (Coulter Corporation, Miami, Fla., USA).
The effect of CEU, namely 4-tBCEU, 4-PCEU and 4-sBCEU, on the cell cycle was analyzed. To this end, exponentially growing MDA-MB-231 cells were treated with 30 μM 4-tBCEU, 4-iPCEU or 4-sBCEU for 24 or 48 h followed by an evaluation of cell cycle distribution by flow cytometry using propidium iodide, a fluorescent DNA dye. […] Induction of mitosis blockage in prophase by CEU derivatives was confirmed by mitotic index analysis as described by Drouin (22).

A further series concerns α-tubulin. The series can be described thus: Western blot for α-tubulin modification. The series is classed as cell-based, human. The following applies: data not shown.
In the next series the test system is CHO TAX 5-6 cells. The series can be described thus: MTT cytotoxicity on taxol-resistant CHO cells expressing mutated tubulin. Format: cell-based, Chinese hamster. As to conditions: Cricetulus griseus, CHO-TAX 5-6, 120 h, read-out: IC50 CHO TAX 5-6. As to the method: as §1, with “Wild-type Chinese Hamster Ovary cells (CHO-10001) (7), colchicine- and vinblastine-resistant (CHO-VV 3-2) (8) and taxol-resistant (CHO-TAX 5-6) cells (9) were generously provided by Dr. Fernando Cabral (University of Texas Medical School, Houston, Tex.).” left out
as §2, §3

For a further series, the target named is T1, βIII-tubulin (Homo sapiens, UniProt Q13509).
T1 construct: SK—N—SH cells, which express significant amounts of neuronal-specific βIII-tubulin; endogenous in cells; host or cells: SK-N-SH (ATCC HTB-11)
The series can be described thus: Alkylation of βIII-tubulin in SK-N-SH cells. Format: cell-based. The protocol: FIG. 7. Localization of the site of alkylation by CEU on β-tubulin. Exponentially growing SK—N—SH cells were incubated in the absence or the presence of 30 μM and 100 μM [urea-^14C]-4-tBCEU for 24 h and 48 h, respectively. Total protein extracts were separated electrophoretically on 10% polyacrylamide gels. […] Results are representative of two independent experiments.
as §1
Samples (1×10^5 cells) were analyzed by 10% SDS-PAGE using the Laemmli system (15). […]

Series [6] relates to β-tubulin. The series can be described thus: Protein alkylation by [urea-14C]-4-tBCEU in MDA-MB-231 cells (autoradiography, immunoblot, kinetics). The series is classed as cell-based, human. As to the method:
FIG. 3. Protein alkylation induced by treatment with [urea-^14C]-4-tBCEU. (A) Post-nuclei protein extracts from MDA-MB-231 cells incubated with 30 or 100 μM of [urea-^14C]-4-tBCEU for 12 and 24 h. […] The protein extracts were analyzed by SDS-PAGE. […] Data are representative of four different experiments. The arrow points to β-tubulin.
FIG. 5. Kinetics of β-tubulin alkylation and microtubule disruption induced by [urea-^14C]-4-tBCEU. Exponentially growing MDA-MB231 cells were incubated with 30 μM [urea-^14C]-4-tBCEU for 0, 1, 4, 8, 12, 18, 24 and 48 h. (A) Free tubulin and microtubule fractions were isolated and analyzed by Western blotting; (B) [urea-^14C]-4-tBCEU-labeled proteins were visualized by autoradiography. Data are representative of three different experiments.
Cells (˜5×10^6) were incubated with 30 or 100 μM [^14C]-tBCEU for 12 or 24 h and then washed with PBS and harvested by scraping in lysis buffer (5 mM Hepes pH 7.4, 1 mM MgCl2, 10 mM KCl, 1 mM CaCl2, 1 mM PMSF, 1 mM benzamidine and 1 mM aprotinin). Cell lysates were homogenized using a tissue grinder and the final sucrose concentration of each sample was adjusted to 250 mM. Samples were centrifuged at 600×g for 10 min at 4° C. to isolate the post-nuclear supernatant. The pellets, containing nuclei and intact cells, were discarded and the post-nuclear supernatant was recentrifuged at 90,000 rpm using a Rotor TLA-100.1 in a Beckman TL-100 ultracentrifuge for 30 min to separate the cytosolic fraction (C) from the insoluble fraction (M) containing the membrane components and mitochondria. One volume of 2× Laemmli sample buffer was then added to the supernatant (C) and the pellet (M) was resuspended in 200 μl of Laemmli sample buffer. Samples were boiled for 5 min and kept at −20° C. until analysis.
Samples (1×10^5 cells) were analyzed by 10% SDS-PAGE using the Laemmli system (15). Membranes were then incubated with PBSMT (PBS, pH 7.4, 5% fat-free dry milk and 0.1% Tween-20) for 1 h at room temperature, and then with 1:500 monoclonal anti-β-tubulin (clone TUB 2.1, Sigma) or 1:400 anti (clone no. SDL.3D10, Sigma) for 1 h. […]

T1 sequence (Q13509 whole entry): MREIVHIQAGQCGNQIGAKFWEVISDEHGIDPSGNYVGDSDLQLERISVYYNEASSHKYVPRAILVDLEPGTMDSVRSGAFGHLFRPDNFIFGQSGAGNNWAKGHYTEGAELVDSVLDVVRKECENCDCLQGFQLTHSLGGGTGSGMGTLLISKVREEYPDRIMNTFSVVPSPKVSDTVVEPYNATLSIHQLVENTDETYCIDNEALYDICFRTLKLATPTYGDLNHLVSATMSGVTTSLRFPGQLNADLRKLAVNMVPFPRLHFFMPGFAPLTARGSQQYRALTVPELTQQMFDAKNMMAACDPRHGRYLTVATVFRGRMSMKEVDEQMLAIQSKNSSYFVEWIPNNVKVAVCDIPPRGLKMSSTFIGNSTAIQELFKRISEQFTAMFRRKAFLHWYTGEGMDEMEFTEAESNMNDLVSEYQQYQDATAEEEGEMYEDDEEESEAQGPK
T1 sequence (P68363 whole entry partner): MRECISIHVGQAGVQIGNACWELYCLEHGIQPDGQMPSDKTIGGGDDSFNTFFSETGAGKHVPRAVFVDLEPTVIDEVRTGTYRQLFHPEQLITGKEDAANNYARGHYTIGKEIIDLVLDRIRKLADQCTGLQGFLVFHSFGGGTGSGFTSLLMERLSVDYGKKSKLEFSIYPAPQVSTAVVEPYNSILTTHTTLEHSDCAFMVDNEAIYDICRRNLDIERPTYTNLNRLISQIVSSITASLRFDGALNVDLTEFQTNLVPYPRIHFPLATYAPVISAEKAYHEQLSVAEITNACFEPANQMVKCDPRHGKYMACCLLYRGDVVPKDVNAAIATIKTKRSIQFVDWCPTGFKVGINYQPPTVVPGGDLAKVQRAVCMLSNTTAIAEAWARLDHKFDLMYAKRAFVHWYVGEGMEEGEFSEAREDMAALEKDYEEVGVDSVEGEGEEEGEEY

Turning to `CC(C)(C)c1ccc(NC(=O)NCCCl)cc1` [Example 4-tBCEU, 4-tert-butyl[3-(2-chloroethyl)ureido]benzene], the “cytotoxicity in words (active / inactive CEU)” value in the series with MDA-MB-231 cells [1] is reported as “active”. For the same compound, the IC50 in the series on MDA-MB-231 cells [1] (Homo sapiens, MDA-MB-231, concentration inhibiting 50% of cell growth) turned out to be 4 µM; in the series with MDA-MB-231 cells [1] (concentration inhibiting 50% of cell growth), 4.6 ± 0.3 µM; in [3], 11.6 ± 0.7 µM; with CHO VV 3-2 cells, 21.3 ± 1.1 µM; in the series on CHO TAX 5-6 cells, 4.6 ± 0.3 µM. Further, the microtubule depolymerization result in the series on β-tubulin [2] was “complete microtubule depolymerization”. Further, in the series with β-tubulin [2] (free tubulin fraction), the “formation of modified β-tubulin (second immunoreactive band of lower Mr)” value is “second immunoreactive band; also recorded: induced in a dose-dependent manner”. The “K′ (constant of alkylation of 4-(4-nitrobenzyl)pyridine)” value in series [4] is 3.1 ± 0.3^a. For the same compound, the “accumulation of cells in G2+M” value with MDA-MB-231 cells [5] was “significant accumulation of cells in the G2+M”. Also, the α-tubulin modification entry in the series with α-tubulin is reported as “no electrophoretic evidence for α-tubulin modification”.
Take `CC(C)(C)c1ccc(N[14C](=O)NCCCl)cc1` [[urea-^14C]-4-tBCEU]: the “alkylation of βIII-tubulin” value at βIII-tubulin (30 and 100 μM, 24 h and 48 h, autoradiography) is “βIII-tubulin is not alkylated”. Moreover, the “migration on SDS-PAGE of βIII-tubulin” value at βIII-tubulin (Western blot (FIG. 7A)) is recorded as “does not alter migration of the β-tubulin on SDS-PAGE”. Moreover, the “incubation time at which modified β-tubulin appears (immunoblot)” value in the series with β-tubulin [6] (30 μM (FIG. 5A)) turned out to be 12 h. Besides, in the series on β-tubulin [6] (30 μM (FIG. 5B)), the “incubation time at which 14C-labeled modified β-tubulin appears (autoradiography)” value is on record as 1 to 4 h. Further, the “incubation time to complete microtubule disruption” value with β-tubulin [6] (30 μM, Western blot (FIG. 5A)) is 8 to 12 h.
